In the OPERA property sets (Mansouri et al. 2018):

Settings: for log10 biotransformation half-life (days) / log10 BCF: fish

CC(=O)Oc1ccccc1C(=O)Oc1ccccc1C(=O)O
melting point: 159 °C

CC(Cl)CC(C)Cl (stereo not given)
boiling point: 145 °C

O=C(O)CCCCC(=O)O
boiling point: 338 °C | log10 vapour pressure (mmHg): -6.5 | melting point: 153 °C | ready biodegradability: readily biodegradable

CCCOC(=O)C(=O)OCCC
boiling point: 211 °C | melting point: -44.3 °C

CC(C)(C(=O)c1cccnc1)c1cccnc1
melting point: 50.5 °C

CC(=O)Nc1ccc(C#N)cc1
melting point: 207 °C

CC[N+](C)(CC)CCOC(=O)C(O)(c1ccccc1)C1CCCCC1.[Br-] (stereo not given)
melting point: 192 °C

CCOS(C)(=O)=O
boiling point: 214 °C | log10 vapour pressure (mmHg): -0.686

CC(C)=CCC(C)C
boiling point: 112 °C | log10 vapour pressure (mmHg): 1.4

CCC1(O)CCCCC1
boiling point: 166 °C | melting point: 34.5 °C

C[C@]12CC[C@H](O)C[C@H]1CC[C@@H]1[C@@H]2[C@H](O)C[C@]2(C)[C@@H](C3=CC(=O)OC3)CC[C@]12O
melting point: 280 °C

CCC(Br)CBr (stereo not given)
boiling point: 166 °C | log10 vapour pressure (mmHg): 0.491 | melting point: -65.4 °C

O=C(O)c1ccc(I)cc1
melting point: 270 °C

O=C(O)C(O)c1ccc(Br)cc1 (stereo not given)
melting point: 118 °C

NNCc1ccccc1
melting point: 26 °C

c1ccc(CCCC2CCCC2)cc1
boiling point: 272 °C

C=COCCCCCCCCCC
melting point: -41 °C

CC1(C)N=C(N)N=C(N)N1c1ccc(Cl)cc1
melting point: 146 °C

S=C=Nc1cccc(Br)c1
boiling point: 256 °C

CC(O)C(Cl)(Cl)Cl (stereo not given)
boiling point: 163 °C | melting point: 50.5 °C

CN(C)C(=O)Oc1cccc([N+](C)(C)C)c1.COS(=O)(=O)[O-]
melting point: 143 °C

CCN(CC)CCOC(=O)c1ccc(N)cc1
melting point: 61 °C

Cc1cc(Cl)cc(Cl)c1
boiling point: 202 °C | melting point: 26 °C

CC(C)(C)c1cc(C(C)(C)c2ccc(O)c(C(C)(C)C)c2)ccc1O
melting point: 114 °C

CCCCCCc1ccc2ccccc2c1
boiling point: 324 °C | melting point: -3 °C

Cn1cnc2nc(N)[nH]c(=O)c21
melting point: 370 °C

Ic1cccc2ccccc12
boiling point: 302 °C | melting point: 4.2 °C | ready biodegradability: readily biodegradable

Cc1ccc(C=O)o1
boiling point: 187 °C

C=Cc1ccc(C(=O)O)cc1
melting point: 144 °C

CC(=O)C(N=Nc1ccc(-c2ccc(N=NC(C(C)=O)C(=O)Nc3ccccc3)c(Cl)c2)cc1Cl)C(=O)Nc1ccccc1 (stereo not given)
ready biodegradability: not readily biodegradable

CCC(C)(S(=O)(=O)CC)S(=O)(=O)CC
melting point: 76 °C

O=C(O)COc1cccc2ccccc12
melting point: 196 °C

C[C@H](O)[C@H](O)[C@@H](O)[C@@H](O)C=O
melting point: 135 °C

Clc1ccccc1-c1c(Cl)cccc1Cl
log10 Henry constant (atm·m³/mol): -3.64 | log10 biotransformation half-life (days): 2.5

COc1ccc(C#N)cc1
boiling point: 256 °C | melting point: 61.5 °C

C[C@H]1CCC[C@H](C)C1=O
boiling point: 175 °C

COc1ccc(CCCC(=O)O)cc1
melting point: 57.5 °C

Cc1c(Cl)c(Cl)cc(Cl)c1Cl
melting point: 93.5 °C

C[C@]12CC[C@@H]3c4ccc(OC(=O)c5ccccc5)cc4CC[C@H]3[C@@H]1CC[C@@H]2O
melting point: 196 °C

CCOC(=O)C(F)F
boiling point: 100 °C

CCCC(=O)c1ccc(C)cc1
boiling point: 252 °C | melting point: 12 °C

O=C(O)c1ccccc1OP(=O)(O)O
melting point: 169 °C

C=CC(C)(C)C
boiling point: 41.2 °C | log10 vapour pressure (mmHg): 2.63 | melting point: -115 °C

CCCCCCCCCCCCCCCCCC(=O)OCCC(C)C
melting point: 25.5 °C

CCOC(=O)CN1CCN(C(=O)/C=C\c2cc(OC)c(OC)c(OC)c2)CC1
melting point: 96 °C

CC(C)[C@H]1CC[C@H](C)C[C@@H]1OCC(=O)O
melting point: 54 °C

CC(C)OC(=O)c1ccccc1
boiling point: 216 °C

CCCCCCCCC=CCCCCCCCC(=O)N(C)CCS(=O)(=O)[O][Na]
ready biodegradability: readily biodegradable

Cc1cccc(NC(=O)c2ccccc2)c1
melting point: 125 °C

CCc1cc(CC)cc(CC)c1
boiling point: 216 °C | melting point: -66.5 °C

Nc1c(Cl)cccc1C(=O)O
melting point: 190 °C

O=C1CCCCO1
boiling point: 219 °C | melting point: -12.5 °C

C=C(Br)CC
boiling point: 88 °C | melting point: -133 °C

N=C(N)NS(=O)(=O)c1ccc(N)cc1
melting point: 192 °C

CCC(=O)Oc1ccc(/C(CC)=C(\CC)c2ccc(OC(=O)CC)cc2)cc1
melting point: 104 °C

O=C(Cl)c1cc(C(=O)Cl)cc(C(=O)Cl)c1
melting point: 36.3 °C

COC1=C(OC)C(=O)C(C)=CC1=O
melting point: 59.5 °C

O=[N+]([O-])c1ccc2c(c1)NCC2
melting point: 68 °C

CC(=O)Nc1cccc(O)c1
melting point: 147 °C

Clc1ccccc1
boiling point: 132 °C | log10 Henry constant (atm·m³/mol): -2.51 | log10 Koa: 3.31 | log10 Koc (L/kg): 2.15 | log10 vapour pressure (mmHg): 1.08 | melting point: -45.2 °C | ready biodegradability: not readily biodegradable | log10 BCF: 1.25 | log10 biotransformation half-life (days): -1.02

O=C(C(Cl)Cl)C(Cl)Cl
boiling point: 183 °C

Cc1ccc(S(=O)(=O)O)cc1
melting point: 104 °C | ready biodegradability: readily biodegradable

C/C=C/C=C/C
boiling point: 80 °C | melting point: -79 °C

CCC(C)(Br)CC
boiling point: 130 °C

OCc1cc(Br)ccc1O
melting point: 113 °C

OCC(F)(F)C(F)(F)C(F)(F)C(F)(F)C(F)(F)C(F)(F)C(F)(F)F
boiling point: 161 °C

O=C1C=Cc2cccc3cccc1c23
log10 vapour pressure (mmHg): -5.17 | melting point: 154 °C

Nc1ccccc1Cl
boiling point: 209 °C | log10 vapour pressure (mmHg): -0.69 | melting point: -14 °C | ready biodegradability: not readily biodegradable | log10 BCF: 0.95 | log10 biotransformation half-life (days): -0.61

CCC(O)CCC(F)(F)F (stereo not given)
boiling point: 141 °C

NS(=O)(=O)c1ccc(SCCO)c([N+](=O)[O-])c1
melting point: 151 °C

C=CC(C)(CCC=C(C)C)OC(=O)C(C)C (stereo not given)
boiling point: 229 °C

Cc1c(Br)cc(Br)c(O)c1Br
melting point: 84 °C

Cc1ccc(O)c(C(C)(C)C)c1
boiling point: 237 °C | log10 vapour pressure (mmHg): -1.6 | melting point: 51.5 °C | ready biodegradability: not readily biodegradable

COCCC(C)C
boiling point: 91 °C

CNC(C)CC1CCCCC1 (stereo not given)
boiling point: 205 °C

COc1cccc(C)c1OC
boiling point: 204 °C

CCCCCCCCC(=O)CC
boiling point: 227 °C | melting point: 12 °C

Cc1ccc(C)n1C
boiling point: 171 °C

CCOC(=O)[C@@H](C)Br
boiling point: 160 °C

OCC(Br)CBr (stereo not given)
log10 vapour pressure (mmHg): -1.04

NCCc1c[nH]c2ccccc12
melting point: 118 °C

COc1cc(CNC(=O)CCCC/C=C/C(C)C)ccc1O
melting point: 65 °C

CC(C)(C)C(=O)CC#N
melting point: 71 °C

NC(=O)Nc1ccc2ccccc2c1
melting point: 219 °C

COC(=O)CCC(=O)O
melting point: 58 °C

Clc1cccc(Nc2ccccc2)c1
boiling point: 338 °C

NCCCCN
boiling point: 158 °C | melting point: 27.5 °C

O=S1(=O)CCCO1
melting point: 31.5 °C | ready biodegradability: readily biodegradable

COC(=O)C(C)C
boiling point: 92.5 °C | log10 vapour pressure (mmHg): 1.69 | melting point: -84.7 °C

CCc1cc(C(N)=S)ccn1
melting point: 163 °C

CC1CCCC(O)C1 (stereo not given)
boiling point: 163 °C | log10 Henry constant (atm·m³/mol): -5.44 | log10 vapour pressure (mmHg): -0.32

O=C(O)c1ccc(Cl)c(Cl)c1
ready biodegradability: not readily biodegradable | log10 BCF: 0.36

FC(F)(F)C(F)(F)C(F)(F)C(F)(F)OC(F)(F)C(F)(F)C(F)(F)C(F)(F)F
boiling point: 102 °C | melting point: -100 °C

CN(C)CCCN(CCCN(C)C)CCCN(C)C
ready biodegradability: not readily biodegradable

CCCCCCCCCCCC(=O)N(CCO)CCO
ready biodegradability: readily biodegradable

CC1=C(O)C(=O)[C@@H]2O[C@@H]2C1=O
melting point: 127 °C

CCCCCCCC1CCCCC1
boiling point: 244 °C | log10 vapour pressure (mmHg): -1.4 | melting point: -30 °C | log10 biotransformation half-life (days): 0.17

O=C1c2ccc(O)cc2C(=O)c2cc(O)ccc21
melting point: 354 °C

CC(=O)CC(c1ccc([N+](=O)[O-])cc1)c1c(O)c2ccccc2oc1=O (stereo not given)
melting point: 197 °C

CN1[C@@H]2CC[C@H]1C[C@@H](OC(=O)C(O)c1ccccc1)C2 (mixture of isomers)
melting point: 99.5 °C

C=Cc1ccc(C)cc1
boiling point: 173 °C | log10 vapour pressure (mmHg): 0.258 | melting point: -34.1 °C | log10 BCF: 1.5

CC1=CC(=O)[C@H]2C[C@@H]1C2(C)C
boiling point: 228 °C

CCCCCCCCCCCCCc1ccccc1
boiling point: 346 °C | log10 vapour pressure (mmHg): -4.9 | melting point: 10 °C

CC(C)(C)Cl
boiling point: 50.5 °C | melting point: -26 °C | ready biodegradability: not readily biodegradable

CCCCCCCCCCCCCCCCCCCCBr
log10 vapour pressure (mmHg): -6.08 | melting point: 37.5 °C

CN(C)C(=O)Oc1ccc[n+](C)c1.[Br-]
melting point: 153 °C

CC(=O)OCC1=C[C@@H]2OC(=O)C3=COC(O[C@@H]4O[C@H](CO)[C@@H](O)[C@H](O)[C@H]4O)C1C32 (stereo not given in full)
melting point: 132 °C

CC/C=C\CO
boiling point: 138 °C

O=C1Cc2ccccc2N1
melting point: 128 °C

CCCCOC(=O)C(C)O (stereo not given)
boiling point: 186 °C | log10 vapour pressure (mmHg): -0.398 | melting point: -28 °C

NNC(=O)NN
melting point: 154 °C

Cc1nc(NS(=O)(=O)c2ccc(N)cc2)oc1C
melting point: 193 °C

Nc1ccc(/N=N/c2ccccc2)cc1
boiling point: 366 °C | log10 Koc (L/kg): 2.79 | log10 vapour pressure (mmHg): -5.85 | melting point: 127 °C | ready biodegradability: not readily biodegradable

CCCOP(=O)(OCCC)OCCC
boiling point: 252 °C | log10 Henry constant (atm·m³/mol): -6.17

Oc1cccc(O)c1
boiling point: 280 °C | log10 Koc (L/kg): 0.98 | log10 vapour pressure (mmHg): -3.31 | melting point: 111 °C | ready biodegradability: readily biodegradable

CC(=O)C(c1ccccc1)c1ccccc1
boiling point: 307 °C | melting point: 46 °C

NC(=O)C(N)=O
log10 vapour pressure (mmHg): -7.2

COC(=O)CCCC(=O)OC
boiling point: 214 °C | log10 vapour pressure (mmHg): -0.745 | melting point: -42.5 °C | ready biodegradability: readily biodegradable

O=C1c2ccccc2N(C(=O)CN2CCOCC2)CN1c1ccccc1
melting point: 136 °C

CC1CCCC(C)(C)C1 (stereo not given)
boiling point: 137 °C | log10 vapour pressure (mmHg): 1.03 | melting point: -65.7 °C

CC1CCCC1
boiling point: 71.8 °C | log10 biodegradation half-life (days): 0.602 | log10 vapour pressure (mmHg): 2.14 | melting point: -142 °C

Nc1ccc(/N=N/c2ccc(N)cc2)cc1
melting point: 250 °C

CCCc1ccc(O)cc1O
melting point: 82.5 °C

Cc1cc(C)c2ncccc2c1
boiling point: 268 °C

CCCCCCCOc1ccc(O)cc1
melting point: 61.5 °C

Clc1cc(-c2cc(Cl)c(Cl)c(Cl)c2Cl)cc(Cl)c1Cl
log10 biotransformation half-life (days): 2.32

C=C(C)Br
boiling point: 48.4 °C | melting point: -126 °C

Clc1ccnc2ccccc12
boiling point: 262 °C | melting point: 34.5 °C

CCCCC(CC)CO[Si](OCC(CC)CCCC)(OCC(CC)CCCC)OCC(CC)CCCC (stereo not given)
boiling point: 419 °C

C=CC(=O)Cl
boiling point: 75.5 °C

FC(Cl)(Cl)Br
boiling point: 52 °C | melting point: -106 °C
